Patent US20190367520A1, “NEW COMPOUND HAVING FGFR INHIBITORY ACTIVITY AND PREPARATION AND APPLICATION THEREOF” (SHANGHAI INSTITUTE OF MATERIA MEDICA, CHINESE ACADEMY OF …, priority 2016, published 2019)

How the values were obtained:
[1] = biological target: FGFR1 kinase domain recombinant protein (Homo sapiens, UniProt P11362); assay: FGFR1 enzyme activity at molecular level (ELISA, Poly(Glu,Tyr) 4:1 substrate)
Protocol: (§1) The plate was placed at 37° C. for 12-16 hours. The liquid in the well was discarded, the plate was washed, and the panel was washed three times with 200 μL/well of T-PBS (PBS containing 0.1% Tween-20) for 5 minutes each time.
(§2) 50 μL of ATP solution diluted with reaction buffer (50 mM HEPES pH 7.4, 50 mM MgCl2, 0.5 mM MnCl2, 0.2 mM Na3VO4, 1 mM DTT) was added to each well to a final concentration of 5 μM. The compound was diluted to a suitable concentration in DMSO, 1 μL/well or containing the corresponding concentration of DMSO (negative control well), and the FGFR1, FGFR4 kinase domain recombinant protein diluted in 49 μL of reaction buffer was added to initiate the reaction. Two control wells without ATP were required for each experiment. The reaction was carried out for 1 hour at 37° C. on a shaker (100 rpm). The plate was washed three times with T-PBS. Primary antibody, PY99 dilution was added at 100 μL/well and shaken at 37° C. for 0.5 hour. The plate was washed three times with T-PBS. Secondary antibody, horseradish peroxidase-labeled goat anti-mouse IgG dilution was added at 100 μL/well, and shaken at 37° C. for 0.5 hour. […] (Ultrasound was required for the dissolution of OPD, and the chromogenic solution needed to be prepared when used). 2 M H2SO4 was added at 50 μL/well to quench the reaction and a tunable wavelength microplate reader SPECTRA MAX 190 was used at a wavelength of 490 nm.
(§3) The inhibition rate of the sample was obtained by the following formula:
(§4) The IC50 value was obtained by four-parameter regression using the software attached to the microplate reader.

[2] = biological target: FGFR4 kinase domain recombinant protein (Homo sapiens, UniProt P22455); assay: FGFR4 enzyme activity at molecular level (ELISA, Poly(Glu,Tyr) 4:1 substrate)
FGFR4 kinase domain recombinant protein, sequence (P22455 467-755 limits assumed): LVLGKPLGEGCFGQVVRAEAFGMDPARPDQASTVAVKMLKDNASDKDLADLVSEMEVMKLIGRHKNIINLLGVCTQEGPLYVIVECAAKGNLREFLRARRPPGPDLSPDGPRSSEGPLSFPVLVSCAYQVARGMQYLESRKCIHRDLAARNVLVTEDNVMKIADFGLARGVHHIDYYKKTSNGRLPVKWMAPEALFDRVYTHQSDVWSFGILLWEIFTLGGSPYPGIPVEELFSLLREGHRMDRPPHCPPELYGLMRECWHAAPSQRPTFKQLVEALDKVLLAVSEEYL
Protocol: as §1, §2, §3, §4

FGFR1 kinase domain recombinant protein, sequence (P11362 478-767 limits assumed): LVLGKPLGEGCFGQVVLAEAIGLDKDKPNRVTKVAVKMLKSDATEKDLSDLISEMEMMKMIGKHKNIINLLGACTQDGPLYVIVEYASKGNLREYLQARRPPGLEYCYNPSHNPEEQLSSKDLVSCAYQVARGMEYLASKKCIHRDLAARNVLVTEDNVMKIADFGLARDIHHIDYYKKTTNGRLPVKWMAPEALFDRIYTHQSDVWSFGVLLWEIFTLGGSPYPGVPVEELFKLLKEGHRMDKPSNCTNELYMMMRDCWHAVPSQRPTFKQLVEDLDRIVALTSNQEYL

For C=C(CN(CC)CC)C(=O)N1CC(n2cc(-c3cc4cc(C)cc(OC)c4s3)c3c(N)ncnc32)C1 [NO. 51, 1-(3-(4-amino-5-(7-methoxy-5-methylbenzothiophene-2-yl)-7H-pyrrole[2,3-d]pyrimidine-7-yl)azetidine-1-yl)-2-((diethylamino)methylene)prop-2-en-1-one], which IC50 [1] is on record?
Its IC50 is < 0.01 µM.

What about the IC50 [2] of the same compound?
The IC50 was < 0.01 µM.

How did the IC50 [1] turn out when C=CC(=O)N1CC[C@H](n2cc(-c3cc4cc(Br)cc(OC)c4s3)c3c(N)ncnc32)C1 [NO. 62, (S)-1-(3-(4-amino-5-(5-bromo-7-methoxybenzothiophene-2-yl)-7H-pyrrole[2,3-d]pyrimidine-7-yl)pyrrolidine-1-yl)prop-2-en-1-one] was run?
Its IC50 is < 0.01 µM.

Which IC50 [1] does the source give for C=CC(=O)N1CC[C@H](n2cc(-c3cc4cc(Cl)cc(OC)c4s3)c3c(N)ncnc32)C1 [NO. 59, (S)-1-(3-(4-amino-5-(5-chloro-7-methoxybenzothiophene-2-yl)-7H-pyrrole[2,3-d]pyrimidine-7-yl)pyrrolidine-1-yl)prop-2-en-1-one] here?
Its IC50 is < 0.01 µM.

What does the source list for C=CC(=O)N1CCC(n2cc(-c3cc4cc(C(F)(F)F)cc(OC)c4s3)c3c(N)ncnc32)C1 (centres unmarked) [NO. 58, 1-(3-(4-amino-5-(7-methoxy-5-(trifluoromethyl)benzothiophene-2-yl)-7H-pyrrole[2,3-d]pyrimidine-7-yl)pyrrolidine-1-yl)prop-2-en-1-one]?
IC50 [1]: < 0.01 µM; IC50 [2]: < 0.01 µM

How did the IC50 [1] turn out when COc1cc(C)cc2cc(-c3cn(C4CCN(C(=O)/C=C/CN5CCCCC5)C4)c4ncnc(N)c34)sc12 (centres unmarked) [NO. 8, (E) 1-(3-(4-amino-5-(7-methoxy-5-methylbenzothiophene-2-yl)-7H-pyrrole[2,3-d]pyrimidine-7-yl)pyrrolidine-1-yl)-4-(piperidine-1-yl)but-2-en-1-one] was run?
Its IC50 is < 0.01 µM.

And the IC50 [2]?
Its IC50 is 0.01 to 0.1 µM.

Which IC50 [1] does the source give for C=CC(=O)N1CCC(n2cc(-c3cc4cc(C)cc(OC)c4s3)c3c(N(C)C)ncnc32)C1 (centres unmarked) [NO. 63, 1-(3-(4-(dimethylamino)-5-(7-methoxy-5-methylbenzothiophene-2-yl)-7H-pyrrole[2,3-d]pyrimidine-7-yl)pyrrolidine-1-yl)prop-2-en-1-one] here?
Its IC50 is > 0.1 µM.

And the IC50 [2]?
Its IC50 is > 0.1 µM.

Which IC50 [1] does the source give for C=C(CN1CCCCC1)C(=O)N1CC[C@H](n2cc(-c3cc4cc(C)cc(OC)c4s3)c3c(N)ncnc32)C1 [NO. 48, (S) 1-(3-(4-amino-5-(7-methoxy-5-methylbenzothiophene-2-yl)-7H-pyrrole[2,3-d]pyrimidine-7-yl)pyrrolidine-1-yl)-2-(piperidine-1-methylene)prop-2-en-1-one] here?
The IC50 was 0.01 to 0.1 µM.

What about the IC50 [2] of the same compound?
Its IC50 is < 0.01 µM.

Which IC50 [1] does the source give for COc1cc(C)cc2cc(-c3cn(C4CCN(C(=O)/C=C/CN5CCC(F)C5)C4)c4ncnc(N)c34)sc12 (centres unmarked) [NO. 69, (E)-1-(3-(4-amino-5-(7-methoxy-5-methylbenzothiophene-2-yl)-7H-pyrrole[2,3-d]pyrimidine-7-yl)pyrrolidine-1-yl)-4-(3-fluoropyrrolidin-1-yl)but-2-en-1-one] here?
Its IC50 is < 0.01 µM.

What about the IC50 [2] of the same compound?
The IC50 was 0.01 to 0.1 µM.

Which IC50 [1] does the source give for C=CC(=O)N1CCC(n2cc(-c3ccoc3)c3c(N)ncnc32)C1 (centres unmarked) [NO. 83, 1-(3-(4-amino-5-(furan-3-yl)-7H-pyrrole [2,3-d]pyrimidine-7-yl)pyrrolidine-1-yl)prop-2-en-1-one] here?
The IC50 was > 0.1 µM.

What about the IC50 [2] of the same compound?
The IC50 was > 0.1 µM.

For C=C(CN1CCOCC1)C(=O)N1CC[C@H](n2nc(-c3cc4cc(C)cc(OC)c4s3)c3c(N)ncnc32)C1 [NO. 54, (S) 1-(3-(4-amino-3-(7-methoxy-5-methylbenzothiophene-2-yl)-1H-pyrazole[3,4-d]pyrimidine-1-yl)pyrrolidine-1-yl)-2-(morpholinemethylene)prop-2-en-1-one], which IC50 [1] is on record?
Its IC50 is < 0.01 µM.

What about the IC50 [2] of the same compound?
Its IC50 is 0.01 to 0.1 µM.

Which IC50 [1] does the source give for C=CC(=O)N1CC[C@H](n2cc(-c3cc4cc(F)cc(OC)c4s3)c3c(N)ncnc32)C1 [NO. 60, (S)-1-(3-(4-amino-5-(5-fluoro-7-methoxybenzothiophene-2-yl)-7H-pyrrole[2,3-d]pyrimidine-7-yl)pyrrolidine-1-yl)prop-2-en-1-one] here?
Its IC50 is < 0.01 µM.

What does the source list for C=CC(=O)N1CCC(Cn2cc(-c3cc4cc(C)cc(OC)c4s3)c3c(N)ncnc32)C1 (centres unmarked) [NO. 20, 1-(3-((4-amino-5-(7-methoxy-5-methylbenzothiophene-2-yl)-7H-pyrrole [2,3-d]pyrimidine-7-yl)methyl)pyrrolidine-1-yl)prop-2-en-1-one]?
IC50 [1]: 0.01 to 0.1 µM; IC50 [2]: 0.01 to 0.1 µM

What does the source list for C=C(CN1CCN(C)CC1)C(=O)N1CC(n2cc(-c3cc4cc(C)cc(OC)c4s3)c3c(N)ncnc32)C1 [NO. 52, 1-(3-(4-amino-5-(7-methoxy-5-methylbenzothiophene-2-yl)-7H-pyrrole[2,3-d]pyrimidine-7-yl)azetidine-1-yl)-2-((4-methylpiperazin-1-yl)methylene)prop-2-en-1-one]?
IC50 [1]: < 0.01 µM; IC50 [2]: < 0.01 µM

COc1cc(C)cc2cc(-c3cn(C4CCN(C(=O)OC(C)(C)C)C4)c4ncnc(N)c34)sc12 (centres unmarked) [NO. 10, tert-butyl 3-(4-amino-5-(7-methoxy-5-methylbenzothiophene-2-yl)-7H-pyrrole[2,3-d]pyrimidine-7-yl) pyrrolidine-1-formate] was tested. Which IC50 [1] did it give?
Its IC50 is 0.01 to 0.1 µM.

What about the IC50 [2] of the same compound?
Its IC50 is > 0.1 µM.

For CCN(C)C/C=C/C(=O)N1CCC(n2cc(-c3cc4cc(C)cc(OC)c4s3)c3c(N)ncnc32)C1 (centres unmarked) [NO. 5, (E) 1-(3-(4-amino-5-(7-methoxy-5-methylbenzothiophene-2-yl)-7H-pyrrole[2,3-d]pyrimidine-7-yl)pyrrolidine-1-yl)-4-(ethyl(methy)amino)but-2-en-1-one], which IC50 [1] is on record?
Its IC50 is < 0.01 µM.

And the IC50 [2]?
The IC50 was 0.01 to 0.1 µM.

How did the IC50 [1] turn out when COc1cc(C)cc2cc(-c3cn(CCN4CCOCC4)c4ncnc(N)c34)sc12 [NO. 76, 5-(7-methoxy-5-methylbenzothiophene-2-yl)-7-(2-morpholineethyl)-7H-pyrrole[2,3-d]p yrimidine-4-amine] was run?
The IC50 was 0.01 to 0.1 µM.

And the IC50 [2]?
The IC50 was > 0.1 µM.

For C=CC(=O)N1CC[C@@H](n2cc(-c3cc4cc(C)cc(OC)c4s3)c3c(N)ncnc32)C1 [NO. 11, (R)-1-(3-(4-amino-5-(7-methoxy-5-methylbenzothiophene-2-yl)-7H-pyrrole[2,3-d]pyrimidine-7-yl)pyrrolidine-1-yl)prop-2-en-1-one], which IC50 [1] is on record?
The IC50 was < 0.01 µM.

And the IC50 [2]?
Its IC50 is 0.01 to 0.1 µM.

COc1cc(C)cc2cc(-c3cn(C4CCN(C(=O)C(C#N)=CC5CC5)C4)c4ncnc(N)c34)sc12 (centres unmarked) [NO. 25, 2-(3-(4-amino-5-(7-methoxy-5-methylbenzothiophene-2-yl)-7H-pyrrole[2,3-d]pyrimidine-7-yl)pyrrolidine-1-carbonyl)-3-cyclopropyl acrylonitrile] was tested. Which IC50 [1] did it give?
Its IC50 is < 0.01 µM.

What about the IC50 [2] of the same compound?
The IC50 was < 0.01 µM.

Which IC50 [1] does the source give for C=C(CN1CCCC1)C(=O)N1CC(n2cc(-c3cc4cc(C)cc(OC)c4s3)c3c(N)ncnc32)C1 [NO. 44, 1-(3-(4-amino-5-(7-methoxy-5-methylbenzothiophene-2-yl)-7H-pyrrole[2,3-d]pyrimidine-7-yl)azetidine-1-yl)-2-(pyrrolidine-1-methylene)prop-2-en-1-one] here?
The IC50 was < 0.01 µM.

What about the IC50 [2] of the same compound?
Its IC50 is < 0.01 µM.

What does the source list for C=CC(=O)N1CCC(n2cc(-c3cc4cc(C(=O)O)cc(OC)c4s3)c3c(N)ncnc32)C1 (centres unmarked) [NO. 85, 2-(7-(1-acryloylpyrrolidine-3-yl)-4-amino-7H-pyrrole[2,3-d]pyrimidine-5-yl)-7-methoxybenzothiophene-5-formic acid]?
IC50 [1]: > 0.1 µM; IC50 [2]: > 0.1 µM

Which IC50 [1] does the source give for C=CC(=O)N1C[C@@H](n2nc(-c3cc4cc(C)cc(OC)c4s3)c3c(N)ncnc32)C[C@H]1C(=O)N(C)CCN(C)C [NO. 75] here?
The IC50 was < 0.01 µM.

C=CC(=O)N1CC(n2cc(-c3cc4cc(C)cc(OC)c4s3)c3c(N)ncnc32)CC1CO (centres unmarked) [NO. 70, 1-(4-(4-amino-5-(7-methoxy-5-methylbenzothiophene-2-yl)-7H-pyrrole[2,3-d]pyrimidine-7-yl)-2-(hydroxymethyl)pyrrolidine-1-yl)prop-2-en-1-one] was tested. Which IC50 [1] did it give?
The IC50 was < 0.01 µM.

With COc1cc(C)cc2cc(-c3cn(C4CCN(C(=O)/C=C/CN(C)C(C)C)C4)c4ncnc(N)c34)sc12 (centres unmarked) [NO. 6, (E)1-(3-(4-amino-5-(7-methoxy-5-methylbenzothiophene-2-yl)-7H-pyrrole[2,3-d]pyrimidine-7-yl)pyrrolidine-1-yl)-4-(isopropyl(methyl)amino)but-2-en-1-one] as the compound, how does the IC50 [1] read?
The IC50 was < 0.01 µM.

And the IC50 [2]?
The IC50 was 0.01 to 0.1 µM.

Which IC50 [1] does the source give for C=CC(=O)N1CCC(n2cc(-c3ccncc3)c3c(N)ncnc32)C1 (centres unmarked) [NO. 82, 1-(3-(4-amino-5-(pyridine-4-yl)-7H-pyrrole[2,3-d]pyrimidine-7-yl)pyrrolidine-1-yl)prop-2-en-1-one] here?
Its IC50 is > 0.1 µM.

What about the IC50 [2] of the same compound?
The IC50 was > 0.1 µM.

What does the source list for COc1cc(C)cc2cc(-c3cn(C4CCN(C(=O)/C=C/CN5CCC(O)CC5)C4)c4ncnc(N)c34)sc12 (centres unmarked) [NO. 77, (E)-1-(3-(4-amino-5-(7-methoxy-5-methylbenzothiophene-2-yl)-7H-pyrrole[2,3-d]pyrimidine-7-yl)pyrrolidine-1-yl)-4-(4-hydroxypiperidine-1-yl)but-2-en-1-one]?
IC50 [1]: < 0.01 µM; IC50 [2]: 0.01 to 0.1 µM

What does the source list for C=CC(=O)NCCn1nc(-c2cc3cc(C)cc(OC)c3s2)c2c(N)ncnc21 [NO. 50, N-(2-(4-amino-3-(7-methoxy-5-methylbenzothiophen-2-yl)-1H-pyrazole[3,4-d]pyrimidine-1-yl)ethyl)acrylamide]?
IC50 [1]: > 0.1 µM; IC50 [2]: > 0.1 µM

Which IC50 [1] does the source give for C=CC(=O)N1CCC(n2cc(-c3cc4cc(C)cc(OC)c4s3)c3c(N)nc(OCCN4CCOCC4)nc32)C1 (centres unmarked) [NO. 66, 1-(3-(4-amino-5-(7-methoxy-5-methylbenzothiophene-2-yl)-2-(2-morpholineethoxy)-7H-pyrrole [2,3-d]pyrimidine-7-yl)pyrrolidine-1-yl)prop-2-en-1-one] here?
Its IC50 is > 0.1 µM.

With C=CC(=O)N1CCC(n2c(Cl)c(-c3cc4cc(C)cc(OC)c4s3)c3c(N)ncnc32)C1 (centres unmarked) [NO. 71] as the compound, how does the IC50 [1] read?
Its IC50 is < 0.01 µM.

C=CC(=O)N1CC(n2cc(-c3cc4cc(C)cc(OC)c4o3)c3c(N)ncnc32)C1 [NO. 23, 1-(3-(4-amino-5-(7-methoxy-5-methylbenzofuran-2-yl)-7H-pyrrole[2,3-d]pyrimidine-7-yl)azetidine-1-yl)prop-2-en-1-one] was tested. Which IC50 [2] did it give?
The IC50 was > 0.1 µM.
